Consider five compounds from ChEMBL document CHEMBL1139186, “Design and evaluation of 'Linkerless' hydroxamic acids as selective HDAC8 inhibitors” (Bioorg Med Chem Lett, 2007).

Experiment [1] deals with T1, Protein deacetylase HDAC6 (Homo sapiens, UniProt Q9UBN7).
T1 sequence (Q9UBN7 whole entry): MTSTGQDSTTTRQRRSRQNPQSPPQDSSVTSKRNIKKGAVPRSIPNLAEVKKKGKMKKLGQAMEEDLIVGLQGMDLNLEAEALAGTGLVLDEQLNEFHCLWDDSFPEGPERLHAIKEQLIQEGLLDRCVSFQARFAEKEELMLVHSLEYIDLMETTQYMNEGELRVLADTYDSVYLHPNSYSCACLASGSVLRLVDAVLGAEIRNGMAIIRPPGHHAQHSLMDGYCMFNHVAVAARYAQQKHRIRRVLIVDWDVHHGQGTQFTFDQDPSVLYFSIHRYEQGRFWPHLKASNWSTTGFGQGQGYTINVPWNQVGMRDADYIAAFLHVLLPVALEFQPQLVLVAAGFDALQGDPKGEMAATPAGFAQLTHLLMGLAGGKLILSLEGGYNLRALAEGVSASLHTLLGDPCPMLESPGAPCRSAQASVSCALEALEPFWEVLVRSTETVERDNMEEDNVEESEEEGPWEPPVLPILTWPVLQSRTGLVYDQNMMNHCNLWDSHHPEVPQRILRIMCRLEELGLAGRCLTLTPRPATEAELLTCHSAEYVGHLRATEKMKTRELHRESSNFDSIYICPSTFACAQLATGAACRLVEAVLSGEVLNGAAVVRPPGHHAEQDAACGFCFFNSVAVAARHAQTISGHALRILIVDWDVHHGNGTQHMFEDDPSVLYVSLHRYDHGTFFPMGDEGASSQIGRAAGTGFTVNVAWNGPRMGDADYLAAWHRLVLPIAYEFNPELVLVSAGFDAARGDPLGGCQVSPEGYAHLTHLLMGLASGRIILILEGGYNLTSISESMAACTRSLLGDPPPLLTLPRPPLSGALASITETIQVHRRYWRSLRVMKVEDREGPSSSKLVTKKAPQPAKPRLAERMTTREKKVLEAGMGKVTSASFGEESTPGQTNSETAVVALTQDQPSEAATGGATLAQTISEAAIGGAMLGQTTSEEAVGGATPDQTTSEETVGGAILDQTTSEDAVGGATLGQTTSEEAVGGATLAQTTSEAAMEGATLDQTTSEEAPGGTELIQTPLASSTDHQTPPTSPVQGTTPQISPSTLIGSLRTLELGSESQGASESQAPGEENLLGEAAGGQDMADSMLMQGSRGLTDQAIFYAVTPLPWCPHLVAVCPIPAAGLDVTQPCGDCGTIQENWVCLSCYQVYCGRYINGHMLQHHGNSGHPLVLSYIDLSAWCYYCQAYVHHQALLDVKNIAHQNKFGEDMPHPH
The experiment is described as follows: Inhibition of human HDAC6 by [3H]acetyl histone peptide assay.

For a further experiment, the target named is T2, Histone deacetylase 8 (Homo sapiens, UniProt Q9BY41).
T2 sequence (Q9BY41 whole entry): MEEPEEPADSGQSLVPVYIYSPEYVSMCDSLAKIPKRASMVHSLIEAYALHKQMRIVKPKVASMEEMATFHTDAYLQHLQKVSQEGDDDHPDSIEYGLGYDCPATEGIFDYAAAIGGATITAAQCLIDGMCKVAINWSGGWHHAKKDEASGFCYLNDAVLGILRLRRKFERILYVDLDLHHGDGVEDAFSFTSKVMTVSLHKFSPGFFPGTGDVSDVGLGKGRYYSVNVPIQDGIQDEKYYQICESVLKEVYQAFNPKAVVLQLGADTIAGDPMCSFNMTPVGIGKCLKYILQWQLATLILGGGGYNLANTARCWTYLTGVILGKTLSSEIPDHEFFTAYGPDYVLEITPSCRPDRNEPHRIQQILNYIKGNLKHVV

The target of a further experiment is Histone deacetylase 1 (Homo sapiens, UniProt Q13547). Put plainly: Inhibition of human HDAC1 by [3H]acetyl histone peptide assay.
Chain of Histone deacetylase 1 (Q13547 whole entry): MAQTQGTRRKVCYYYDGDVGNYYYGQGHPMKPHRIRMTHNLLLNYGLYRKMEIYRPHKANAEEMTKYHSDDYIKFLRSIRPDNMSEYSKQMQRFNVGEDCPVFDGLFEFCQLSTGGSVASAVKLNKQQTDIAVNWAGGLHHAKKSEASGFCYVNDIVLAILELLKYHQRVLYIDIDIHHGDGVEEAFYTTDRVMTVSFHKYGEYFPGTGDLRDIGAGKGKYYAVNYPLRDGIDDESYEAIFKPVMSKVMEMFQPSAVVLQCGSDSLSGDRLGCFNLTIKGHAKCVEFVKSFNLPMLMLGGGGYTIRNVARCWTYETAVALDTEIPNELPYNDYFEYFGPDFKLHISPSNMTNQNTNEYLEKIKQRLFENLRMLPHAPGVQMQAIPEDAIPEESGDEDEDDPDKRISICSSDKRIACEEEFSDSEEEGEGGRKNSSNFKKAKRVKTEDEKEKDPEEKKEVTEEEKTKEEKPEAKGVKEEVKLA
For experiment [2], the system named is HEK293. The experiment is described as follows: Increase in lysine-acetylated histone H4 levels in HEK293 cells by Western blot. Type of experiment: functional, cell-based. The note with it: Homo sapiens. (In general: Immunoblotting shows a protein as a band on a membrane.)
For experiment [3], the system named is HeLa. The experiment is described as follows: Increase in lysine-acetylated tubulin levels in HeLa cells by Western blot. Type of experiment: functional, cell-based. The note with it: Homo sapiens.
For experiment [4], the system named is HeLa. The experiment is described as follows: Increase in lysine-acetylated histone H4 levels in HeLa cells by Western blot. The note with it: Homo sapiens. Type of experiment: functional, cell-based.
Experiment [5] concerns HEK293. The experiment is described as follows: Increase in lysine-acetylated tubulin levels in HEK293 cells by Western blot. It counts as functional, cell-based. The note with it: Homo sapiens.

Active and inactive are the calls of the source. The calls are words filed in the database; no cut-off is given here. A value given as a limit tells only on which side of the number the result lay.

Description for Histone deacetylase 8: Inhibition of human HDAC8 by [3H]acetyl histone peptide assay

By IC50 is commonly meant the point on the concentration scale where inhibition reaches its midpoint. A lower IC50 goes with greater potency. Consider `O=C(NO)c1cccc(-c2ccccc2)c1`, for which the IC50 in experiment [1] was more than 100 µM; against Histone deacetylase 8, 20 µM; on Histone deacetylase 1, more than 100 µM.

Consider `O=C(NO)c1cccc(Oc2ccccc2)c1`, for which, at Histone deacetylase 8, the IC50 came out at 6.6 µM.

Turning to `O=C(NO)c1cccc2ccccc12`, the IC50 is more than 100 µM in experiment [1], 14 µM on Histone deacetylase 8 and more than 100 µM against Histone deacetylase 1.

Consider `O=C(NO)c1ccc(-c2cccc3ccccc23)cc1`, for which the results for the IC50 (in experiment [1]; against Histone deacetylase 8; against Histone deacetylase 1) were 55 µM, 0.3 µM and more than 100 µM, respectively.

On to `O=C(/C=C/c1cccc2ccccc12)NO`, for which the outcome in the experiment with HEK293 [2], in the experiment with HeLa [3], in the experiment on HeLa [4] and with HEK293 [5] was Active. The IC50 was 82 µM in experiment [1], 0.7 µM against Histone deacetylase 8 and more than 100 µM on Histone deacetylase 1.
